Laboratory results taken from patent US6849612B2, “Oligonucleotide modulation of cell adhesion” (ISIS Pharmaceuticals, Inc., priority 1993, dated 2005).
Strand notation (5' to 3'): a small letter for the sugar, then the base; units joined by * are phosphorothioate-linked, units joined directly phosphodiester-linked; [ ] holds rarer units or linkages, { } end groups; capitals alone tell only the bases. d = 2'-deoxy (DNA)

What was measured:
ICAM-1 [1] = assay: ELISA of ICAM-1 cell surface expression in oligonucleotide-pretreated, cytokine-stimulated HUVEC; format: cell-based, human; settings: HUVEC, interleukin-1β; concentration not given
ICAM-1 [2] = assay: ELISA screening for ICAM-1 expression in interleukin-1β-stimulated cells (HUVEC and A549); format: cell-based, human; settings: interleukin-1β-stimulated cells, two cell lines (HUVEC, A549)
VCAM-1 = assay: ELISA of VCAM-1 expression in TNF-stimulated HUVEC; format: cell-based, human; settings: for VCAM-1 EXPRESSION 30 nM oligo (VCAM-1 expression is given as % of control) / VCAM-1 EXPRESSION 50 nM oligo (VCAM-1 expression is given as % of control): TNF-α 16 hours; for IC50: TNF-α, read-out: IC50 for inhibition of VCAM-1 expression (asterisk)
Procedure: Primary human umbilical vein endothelial (HUVEC) cells, passage 2 to 5, were plated in 96-well plates and allowed to reach confluence. Cells were washed three times with Opti-MEM (GIBCO, Grand Island N.Y.). Cells were treated with increasing concentrations of oligonucleotide diluted in Opti-MEM containing 10 μg/ml DOTMA solution (Bethesda Research Labs, Bethesda, Md.) for 4 hours at 370C. The medium was removed and replaced with EGM-UV (Clonetics, San Diego Calif.) plus oligonucleotide. Tumor necrosis factor α was added to the medium (2.5 ng/ml) and the cells were incubated an additional 4 hours at 37° C.
ELAM-1 expression was determined by ELISA. Cells were gently washed three times with Dulbecco's phosphate-buffered saline (D-PBS) prewarmed to 37° C. Cells were fixed with 95% ethanol at 4° C. for 20 minutes, washed three times with D-PBS and blocked with 2% BSA in D-PBS. Cells were incubated with ELAM-1 monoclonal antibody BBA-1 (R&D Systems, Minneapolis Minn.) diluted to 0.5 μg/ml in D-PBS containing 2% BSA for 1 hour at 37° C. Cells were washed three times with D-PBS and the bound ELAM-1 antibody detected with biotinylated goat anti-mouse secondary antibody followed by β-galactosidase-conjugated streptavidin as described in Example 1.
Inhibition of VCAM-1 expression by fifteen antisense phosphorothioate oligonucleotides was determined using the ELISA assay approximately as described in Example 12, except that cells were stimulated with TNF-àfor 16 hours and VCAM-1 expression was detected by a VCAM-1 specific monoclonal antibody (R & D Systems, Minneapolis, Minn.) used at 0.5 μg/ml.

[3] = tested on: corneal allograft rejection; assay: Rat corneal allograft rejection (ACI donor to Lewis recipient); format: in vivo

| Substance | inhibition of ICAM-1 expression, relative activity in words (ICAM-1 [2]) | VCAM-1 EXPRESSION 30 nM oligo (VCAM-1 expression is given as % of control) (VCAM-1) | VCAM-1 EXPRESSION 50 nM oligo (VCAM-1 expression is given as % of control) (VCAM-1) | also measured |
| --- | --- | --- | --- | --- |
| ISIS 1558: P=O oligonucleotide, human ICAM-1 AUG Codon (64-81), SEQ ID NO 1, TGGGAGCCATAGCGAGGC (unmodified DNA) |  |  |  | inhibition of ICAM-1 expression (ICAM-1 [1]): did not inhibit expression of ICAM-1 |
| ISIS 1573: P=S, human ICAM-1 3′-Untranslated (2849-2866), SEQ ID NO 4, GAGGCTGAGGTGGGAGGA (antisense dG*dA*dG*dG*dC*dT*dG*dA*dG*dG*dT*dG*dG*dG*dA*dG*dG*dA) | not as active as ISIS-1939 |  |  |  |
| ISIS 1931: P=S, human ICAM-1 AUG Codon (55-74), SEQ ID NO 7, CATAGCGAGGCTGAGGTTGC (antisense dC*dA*dT*dA*dG*dC*dG*dA*dG*dG*dC*dT*dG*dA*dG*dG*dT*dT*dG*dC) | inhibit ICAM-1 expression |  |  |  |
| ISIS 1932: P=S, human ICAM-1 AUG Codon (72-91), SEQ ID NO 8, CGGGGGCTGCTGGGAGCCAT (antisense dC*dG*dG*dG*dG*dG*dC*dT*dG*dC*dT*dG*dG*dG*dA*dG*dC*dC*dA*dT) | slightly less active than ISIS 1570 and ISIS 1931 |  |  |  |
| ISIS 1933: P=S, human ICAM-1 Coding Region (111-130), SEQ ID NO 9 (antisense dA*dG*dA*dG*dC*dC*dC*dC*dG*dA*dG*dC*dA*dG*dG*dA*dC*dC*dA*dG) | weak activity |  |  |  |
| ISIS 1934: P=S, human ICAM-1 Coding Region (351-370), SEQ ID NO 10 (antisense dT*dG*dC*dC*dC*dA*dT*dC*dA*dG*dG*dG*dC*dA*dG*dT*dT*dT*dG*dA) | weak activity |  |  |  |
| ISIS 1935: P=S, human ICAM-1 Coding Region (889-908), SEQ ID NO 11 (antisense dG*dG*dT*dC*dA*dC*dA*dC*dT*dG*dA*dC*dT*dG*dA*dG*dG*dC*dC*dT) | weak activity |  |  |  |
| ISIS 1936: P=S, human ICAM-1 Coding Region (1459-1468), SEQ ID NO 12 (antisense dC*dT*dC*dG*dC*dG*dG*dG*dT*dG*dA*dC*dC*dT*dC*dC*dC*dC*dT*dT) | weak activity |  |  |  |
| ISIS 1937: P=S, human ICAM-1 Termination Codon (1651-1687), SEQ ID NO 13, TCAGGGAGGCGTGGCTTGTG (antisense dT*dC*dA*dG*dG*dG*dA*dG*dG*dC*dG*dT*dG*dG*dC*dT*dT*dG*dT*dG) | moderate activity |  |  |  |
| ISIS 1938: P=S (printed P = 5), human ICAM-1 Termination Codon (1668-1687), SEQ ID NO 14, CCTGTCCCGGGATAGGTTCA (antisense dC*dC*dT*dG*dT*dC*dC*dC*dG*dG*dG*dA*dT*dA*dG*dG*dT*dT*dC*dA) | moderate activity |  |  |  |
| ISIS 2307: P=S, human ICAM-1 3′-Untranslated (1976-1995), SEQ ID NO 26 (antisense dT*dG*dT*dC*dC*dT*dC*dA*dT*dG*dG*dT*dG*dG*dG*dG*dC*dT*dA*dT) | least active of the series |  |  |  |
| ISIS 2634: 2′-fluoro A, C & U; P=S, human ICAM-1 AUG-Codon (64-81), SEQ ID NO 1 (antisense TGGGAGCCATAGCGAGGC; DNA at G, 2'-fluoro at ACT, all phosphorothioate, T or U not given here) | less effective |  |  |  |
| ISIS 2637: 2′-fluoro A, C & U, human ICAM-1 3′-Untrans. (1952-1971), SEQ ID NO 15 (antisense CCCCCACCACTTCCCCTCTC; all 2'-fluoro, backbone and T or U not given here; further chemistry not fully specified) | did not exhibit this level of activity |  |  |  |
| ISIS 2973: 2′-O-methyl; P=S, human ICAM-1 3′-Untrans. (1952-1971), SEQ ID NO 15 (CCCCCACCACTTCCCCTCTC; listed as DNA, chemistry not fully specified) | did not exhibit this level of activity |  |  |  |
| ISIS 2974: 2′-O-methyl; P=S, human ICAM-1 AUG Codon (64-81), SEQ ID NO 1 (TGGGAGCCATAGCGAGGC; listed as DNA, chemistry not fully specified) | approximately threefold less effective than ISIS 1570 |  |  |  |
| ISIS 5847: phosphorothioate, human VCAM-1 3′-UTR 2957-2976, SEQ ID NO 72, AACATCTCCGTACCATGCCA (DNA, all phosphorothioate, methylation of C not given here) |  | 51.8 % of control | 24.6 % of control | IC50 (VCAM-1): ≤ 50 nM |
| ISIS 5862: phosphorothioate, human VCAM-1 5′-UTR 48-68, SEQ ID NO 62, CCTGTGTGTGCCTGGGAGGG (DNA, all phosphorothioate, methylation of C not given here) |  | 115.0 % of control | 3.5 % of control |  |
| ISIS 5863: phosphorothioate, human VCAM-1 CODING 745-764, SEQ ID NO 64, CAGCCTGCCTTACTGTGGGC (DNA, all phosphorothioate, methylation of C not given here) |  | 95.8 % of control | 66.7 % of control |  |
| ISIS 5874: phosphorothioate, human VCAM-1 CODING 1032-1052, SEQ ID NO 65, CTTGAACAATTAATTCCACCT (DNA, all phosphorothioate, methylation of C not given here) |  | 66.5 % of control | 35.3 % of control | IC50 (VCAM-1): ≤ 50 nM |
| ISIS 5875: phosphorothioate, human VCAM-1 CODING 2183-2203, SEQ ID NO 68, GTCTTTGTTGTTTTCTCTTCC (DNA, all phosphorothioate, methylation of C not given here) |  | 59.2 % of control | 34.8 % of control | IC50 (VCAM-1): ≤ 50 nM |
| ISIS 5876: phosphorothioate, human VCAM-1 CODING 2038-2057, SEQ ID NO 67, CTGTGTCTCCTGTCTCCGCT (DNA, all phosphorothioate, methylation of C not given here) |  | 43.5 % of control | 26.6 % of control | IC50 (VCAM-1): ≤ 50 nM |
| ISIS 5884: phosphorothioate, human VCAM-1 5′-UTR 1-19, SEQ ID NO 60, CGATGCAGATACCGCGGAGT (antisense dC*dG*dA*dT*dG*dC*dA*dG*dA*dT*dA*dC*dC*dG*dC*dG*dG*dA*dG*dT) |  | 79.2 % of control | 37.2 % of control | IC50 (VCAM-1): ≤ 50 nM |
| ISIS 5885: phosphorothioate, human VCAM-1 E/I 1633-1649 + intron, SEQ ID NO 66, TTACCATTGACATAAAGTGTT (DNA, all phosphorothioate, methylation of C not given here) |  | 84.4 % of control | 52.4 % of control |  |
| ISIS 9125: rat ICAM-1 antisense, AGGGCCACTGCTCGTCCACA, all 2′-deoxyphosphorothioate (SEQ ID NO: 86) (antisense dA*dG*dG*dG*dC*dC*dA*dC*dT*dG*dC*dT*dC*dG*dT*dC*dC*dA*dC*dA) |  |  |  | corneal edema vs OPTISOL alone group ([3]; day 3 post-surgery): more corneal edema; grading for cornea opacity and neovascularization, better than OPTISOL alone group ([3]; day 3 post-surgery): 50%; average days to rejection ([3]; donor corneas incubated 24 hours in OPTISOL plus 400 μg/ml oligonucleotide, OPTISOL alone 4.80 days): 6.33 days; range of days to rejection ([3]; donor corneas incubated 24 hours in OPTISOL plus oligonucleotide): 6 to 10 days; increase of days to rejection ([3]; over the 24 hour OPTISOL incubation control group): 25% |
